Key:
[1] = Antiproliferative activity against human NHFB cells assessed as reduction in cell growth incubated for 72 hrs by MTT assay; format: cell-based
SK-OV-3 [2] = test: Antiproliferative activity against human SKOV3 cells assessed as reduction in cell growth incubated for 72 hrs by MTT assay; format: functional, cell-based; details: SK-OV-3, 72 h
BT-474 [3] = test: Antiproliferative activity against human BT474 cells assessed as reduction in cell growth incubated for 72 hrs by MTT assay; format: functional, cell-based; details: BT-474, 72 h
MCF7 [4] = test: Antiproliferative activity against human MCF7 cells assessed as reduction in cell growth incubated for 72 hrs by MTT assay; format: functional, cell-based; details: MCF7, 72 h
NCI-H1299 [5] = test: Antiproliferative activity against human NCI-H1299 cells assessed as reduction in cell growth incubated for 72 hrs by MTT assay; format: functional, cell-based; details: NCI-H1299, 72 h
BXPC-3 [6] = test: Antiproliferative activity against human BxPC3 cells assessed as reduction in cell growth incubated for 72 hrs by MTT assay; format: functional, cell-based; details: BXPC-3, 72 h
U-87 MG [7] = test: Antiproliferative activity against human U87 cells assessed as cell growth at 10 uM incubated for 72 hrs by MTT assay relative to untreated control; format: functional, U-87MG ATCC; details: read-out: Activity
[8] = Antiproliferative activity against human IGR-39 cells assessed as cell growth at 10 uM incubated for 72 hrs by MTT assay relative to untreated control; format: functional; details: IGR-39, 72 h, read-out: Activity
BT-474 [9] = test: Antiproliferative activity against human BT474 cells assessed as cell growth at 10 uM incubated for 72 hrs by MTT assay relative to untreated control; format: functional; details: BT-474, 72 h, read-out: Activity
SK-OV-3 [10] = test: Antiproliferative activity against human SKOV3 cells assessed as cell growth at 10 uM incubated for 72 hrs by MTT assay relative to untreated control; format: functional; details: SK-OV-3, 72 h, read-out: Activity
[11] = Antiproliferative activity against human NHFB cells assessed as cell growth at 10 uM incubated for 72 hrs by MTT assay relative to untreated control; format: cell-based; details: read-out: Activity
[12] = Antiproliferative activity against human IGR-39 cells assessed as reduction in cell growth incubated for 72 hrs by MTT assay; format: functional, cell-based; details: IGR-39, 72 h
MDA-MB-231 = test: Antiproliferative activity against human MDA-MB-231 cells assessed as cell growth at 10 uM incubated for 72 hrs by MTT assay relative to untreated control; format: functional; details: MDA-MB-231, 72 h, read-out: Activity
NCI-H1299 [13] = test: Antiproliferative activity against human NCI-H1299 cells assessed as cell growth at 10 uM incubated for 72 hrs by MTT assay relative to untreated control; format: functional; details: NCI-H1299, 72 h, read-out: Activity
U-87 MG [14] = test: Antiproliferative activity against human U87 cells assessed as reduction in cell growth incubated for 72 hrs by MTT assay; format: functional, cell-based, U-87MG ATCC
BXPC-3 [15] = test: Antiproliferative activity against human BxPC3 cells assessed as cell growth at 10 uM incubated for 72 hrs by MTT assay relative to untreated control; format: functional; details: BXPC-3, 72 h, read-out: Activity
MCF7 [16] = test: Antiproliferative activity against human MCF7 cells assessed as cell growth at 10 uM incubated for 72 hrs by MTT assay relative to untreated control; format: functional; details: MCF7, 72 h, read-out: Activity
A549 [17] = test: Antiproliferative activity against human A549 cells assessed as cell growth at 10 uM incubated for 72 hrs by MTT assay relative to untreated control; format: functional; details: A549, 72 h, read-out: Activity
A549 [18] = test: Induction of apoptosis in human A549 cells at 0.5 times antiproliferative EC50 incubated for 72 hrs by Hoechst 33342 and propidium iodide staining based inverted fluorescent microscopy relative to untreated control; format: functional
U-87 MG [19] = test: Induction of apoptosis in human U87 cells at 0.5 times antiproliferative EC50 incubated for 72 hrs by Hoechst 33342 and propidium iodide staining based inverted fluorescent microscopy relative to untreated control; format: functional, U-87MG ATCC
[20] = Induction of necrosis in human IGR-39 cells at 0.5 times antiproliferative EC50 incubated for 72 hrs by Hoechst 33342 and propidium iodide staining based inverted fluorescent microscopy relative to untreated control; format: functional
U-87 MG [21] = test: Induction of necrosis in human U87 cells at 0.5 times antiproliferative EC50 incubated for 72 hrs by Hoechst 33342 and propidium iodide staining based inverted fluorescent microscopy relative to untreated control; format: functional, U-87MG ATCC
A549 [22] = test: Antiproliferative activity against human A549 cells assessed as reduction in cell growth incubated for 72 hrs by MTT assay; format: functional, cell-based; details: A549, 72 h
A549 [23] = test: Induction of necrosis in human A549 cells at 0.5 times antiproliferative EC50 incubated for 72 hrs by Hoechst 33342 and propidium iodide staining based inverted fluorescent microscopy relative to untreated control; format: functional
[24] = Induction of apoptosis in human IGR-39 cells at 0.5 times antiproliferative EC50 incubated for 72 hrs by Hoechst 33342 and propidium iodide staining based inverted fluorescent microscopy relative to untreated control; format: functional

Row | SMILES | EC50 (MCF7 [4]) | EC50 (BXPC-3 [6]) | growth at 10 µM (U-87 MG [7]) | growth at 10 µM [8] | growth at 10 µM (BT-474 [9]) | growth at 10 µM (SK-OV-3 [10]) | viability at 72 h, 10 µM [11] | EC50 [12] | growth at 10 µM (MDA-MB-231) | growth at 10 µM (NCI-H1299 [13]) | EC50 (U-87 MG [14]) | growth at 10 µM (BXPC-3 [15]) | growth at 10 µM (MCF7 [16]) | growth at 10 µM (A549 [17]) | other results
1 | CCN(CC)CCNC(=O)c1c(C)[nH]c(/C=C2\C(=O)Nc3ccc(F)cc32)c1C [SUNITINIB] | 960 nM | 2500 nM | – | – | – | – | – | – | – | – | – | – | – | – | EC50 [1]: 300 nM; EC50 (SK-OV-3 [2]): 1360 nM; EC50 (BT-474 [3]): 900 nM; EC50 (NCI-H1299 [5]): 1540 nM
2 | COc1ccc(C2CC(c3cccs3)=NN2C2=NC(=O)/C(=C3/C(=O)Nc4ccc(Cl)cc43)S2)cc1 (configuration not stated) | – | – | 4.35% | 0.9% | 86.8% | 56.6% | 47.5% | 2970 nM | 80.4% | 117% | 5760 nM | 59.6% | 112% | 22.4% | –
3 | COc1ccc(C2CC(c3cccs3)=NN2C2=NC(=O)/C(=C3/C(=O)Nc4ccc(C)cc43)S2)cc1 (configuration not stated) | – | – | 12.1% | 1.37% | 95% | 38.4% | 48.3% | – | 76.9% | 84% | – | 62.4% | 112% | 22.7% | –
4 | COc1ccc(C2CC(c3cccs3)=NN2C2=NC(=O)/C(=C3/C(=O)Nc4c(Br)cccc43)S2)cc1 (configuration not stated) | – | – | 57% | 101% | 94.3% | 88% | 46.3% | – | 73.9% | 89.2% | – | 53.7% | 126% | 86.1% | –
5 | COc1ccc(C2CC(c3ccc4ccccc4c3)=NN2C2=NC(=O)/C(=C3/C(=O)Nc4c(Br)cccc43)S2)cc1 (configuration not stated) | – | – | 96.7% | 98.6% | 88.2% | 89.9% | 47.3% | – | 68.2% | 81% | – | 55.3% | 102% | 94.2% | –
6 | COc1ccc(C2CC(c3ccc4ccccc4c3)=NN2C2=NC(=O)/C(=C3/C(=O)Nc4c(F)cccc43)S2)cc1 (configuration not stated) | – | – | 86.2% | 109% | 112% | 67.7% | 89.4% | – | 87.3% | 60.5% | – | 73.1% | 118% | 86.5% | –
7 | COc1ccc(C2CC(c3cccs3)=NN2C2=NC(=O)/C(=C3/C(=O)Nc4ccc(OC)cc43)S2)cc1 (configuration not stated) | – | – | 44.9% | 98.6% | 98.4% | 49.5% | 64.4% | – | 99.3% | 85.9% | – | 67.6% | 120% | 62.5% | –
8 | COc1ccc(C2CC(c3cccs3)=NN2C2=NC(=O)/C(=C3/C(=O)Nc4c(C)cc(C)cc43)S2)cc1 (configuration not stated) | – | – | 126% | 117% | 103% | 79.9% | 80.3% | – | 111% | 120% | – | 72.3% | 114% | 104% | –
9 | COc1ccc(C2CC(c3ccc4ccccc4c3)=NN2C2=NC(=O)/C(=C3/C(=O)Nc4ccc(Cl)cc43)S2)cc1 (configuration not stated) | 70 nM | 60 nM | 1.59% | 1.3% | 24.2% | 6.69% | 14.4% | 330 nM | 6.87% | 9.76% | 380 nM | 5.62% | 3.81% | 3.84% | Activity (A549 [18]): 13.5 - 27%; Activity (U-87 MG [19]): 13.5 - 27%; EC50 (SK-OV-3 [2]): 60 nM; Activity [20]: <1%; Activity (U-87 MG [21]): <1%; EC50 (A549 [22]): 340 nM; EC50 (BT-474 [3]): 90 nM; Activity (A549 [23]): <1%; Activity [24]: 13.5 - 27%; EC50 (NCI-H1299 [5]): 10 nM
10 | COc1ccc(C2CC(c3ccc4ccccc4c3)=NN2C2=NC(=O)/C(=C3/C(=O)Nc4ccc(C)cc43)S2)cc1 (configuration not stated) | 310 nM | 100 nM | 14.2% | 0.46% | 40.2% | 66.6% | 11.8% | 140 nM | 10.8% | 19.3% | 230 nM | 5.02% | 4.81% | 6.21% | Activity (A549 [18]): 13.5 - 27%; EC50 [1]: 150 nM; Activity (U-87 MG [19]): 13.5 - 27%; Activity [20]: <1%; Activity (U-87 MG [21]): <1%; EC50 (A549 [22]): 180 nM; Activity (A549 [23]): <1%; Activity [24]: 13.5 - 27%
11 | COc1ccc(C2CC(c3ccc4ccccc4c3)=NN2C2=NC(=O)/C(=C3/C(=O)Nc4ccc(OC)cc43)S2)cc1 (configuration not stated) | 270 nM | 100 nM | 1.13% | 1.2% | 49.1% | 41.4% | 13.3% | 500 nM | 9.67% | 9.85% | 670 nM | 5.13% | 3.64% | 3.93% | EC50 [1]: 270 nM; EC50 (A549 [22]): 730 nM; EC50 (BT-474 [3]): 240 nM; EC50 (NCI-H1299 [5]): 150 nM
12 | COc1ccc(C2CC(c3cccs3)=NN2C2=NC(=O)/C(=C3/C(=O)Nc4ccc(F)cc43)S2)cc1 (configuration not stated) | – | – | 14.4% | 28.1% | 102% | 94.1% | 20% | – | 81.5% | 68.3% | – | 77.2% | 112% | 63.6% | –
13 | COc1ccc(C2CC(c3ccc4ccccc4c3)=NN2C2=NC(=O)/C(=C3/C(=O)Nc4c(C)cc(C)cc43)S2)cc1 (configuration not stated) | – | – | 64.2% | 63.4% | 62.2% | 26.6% | 55.6% | – | 73% | 87.8% | – | 44.9% | 120% | 43.8% | –

Reference: ChEMBL document CHEMBL4339221, “Investigating the Anticancer Activity of Isatin/Dihydropyrazole Hybrids” (ACS Med Chem Lett, 2019)
